# In PubChem BioAssay AID2060501 (Molecular Pharmacology Branch, DTP, NCI, 2025):
# Where “and” joins values, the source holds several entries; their conditions need not be identical. Equal values may be shown once.
# Test system: 282377-053-R-J1-PDC complex spheroids, viability
# Experiment: Anticancer human tumor 282377-053-R-J1-PDC patient-derived colon adenocarcinoma cell line growth inhibition [GQUAD]
# Details: for viability, T/C: stronger effect = lower value; for IC50: curve of compound
# Excerpt: DNA G-quadruplex Stabilizer Agents in Combinations in Complex Spheroids
# A high-throughput screen of multi-cell type tumor spheroids was designed to identify active combinations of DNA G-quadruplex stabilizer agents and targeted small molecules. Complex spheroids include a stromal component modeled by human endothelial cells (HUVEC) and fibroblasts modeled by human mesenchymal stem cells (MSCs). The concentration ranges selected for each drug and investigational agent were based upon clinically achievable concentrations if the clinical Cmax of the agent was known.
# Compounds. The drugs and investigational agents: pidnarulex (CX-5461; NSC782164), APTO-253 (NSC789042), BRACO-19 (NSC847499), peposertib (NSC802822), ceralasertib (NSC780249), elimusertib (NSC800525), camonsertib (NSC841442), AZD-1390 (NSC803789), olaparib (NSC753686), talazoparib (NSC767125), ART-558 (NSC835418), sotorasib (NSC818433), MRTX-1133 (NSC836407), SN-38 (NSC673596), topotecan (NSC609699), etoposide (NSC141540), doxorubicin (NSC123127), gemcitabine (NSC613327), 5-fluorouracil (NSC19893), paclitaxel (NSC125973), vemurafenib (NSC761431), panobinostat (NSC761190), R-306465 (JNJ-16241199; NSC773264), adavosertib (NSC754352), TP-3654 (NSC805149), carboplatin (NSC241240), KSQ-4279 (NSC840948), and staurosporine (NSC755774) were obtained from the National Cancer Institute (NCI) Developmental Therapeutics Program Chemical Repository (34). The FDA-approved anticancer drug set is available from the NCI Developmental Therapeutics Program. […] The stock solutions were prepared in dimethyl sulfoxide (DMSO, Sigma-Aldrich, St. Louis, MO, cat. D2650) at 800-fold the tested concentration and stored at -70 degrees C prior to their use. All drugs and investigational agents were tested over a range starting from a high concentration at or near the clinical Cmax and decreasing in half-log increments. If the clinical Cmax for an agent had not been determined, the highest concentration tested was 10 microM.
# 2.3 Cell Culture. All cells were maintained in an incubator at 37 degrees C and 5% CO2 with 95% humidity. The PDC lines were cultured according to standard operating procedures established by the NCI PDMR. All PDCs were thawed and cultured in Matrigel-coated flasks prepared with a working solution of 1X Ham's F-12 nutrient mix, without supplementation (Invitrogen, cat. 11765054), 100 U/mL penicillin-streptomycin (Invitrogen, cat. 15140122), and 2.5% Matrigel (Corning Inc., cat. 354248) for the first three passages. The 857933-349-R-J2-PDC line was cultured in 6C/Colon 1B media, which includes advanced DMEM/F-12 (Thermo Fisher Scientific, cat. 12634028), 10 mM HEPES (Thermo Fisher Scientific, cat. 15630080), 1X GlutaMAX supplement (Thermo Fisher Scientific, cat. 35050061), 0.1 mg/mL primocin (InvivoGen, cat. ant-pm-2), 10% defined fetal bovine serum, heat inactivated (HyClone Laboratories Inc., cat. SH30070.03HI), 50% L-WRN conditioned media (ATCC, cat. CRL-3276), 1.25 mM N-Acetyl-L-cysteine (Sigma-Aldrich, cat. A9165), 10 mM nicotinamide (Sigma-Aldrich, cat. N0636), 1X B-27 supplement (Thermo Fisher Scientific, cat. 17504044), 1X N-2 supplement (Thermo Fisher Scientific, cat. 17502048), 10 microM Y-27632 dihydrochloride (Tocris Bioscience, cat. 1254), and 50 ng/mL human EGF recombinant protein (Thermo Fisher Scientific, cat. PHG0311). The 485176-168-R4-J1-PDC line was cultured in Panc media, which includes all 6C/Colon 1B media components plus 100 ng/mL human FGF-10 (Thermo Fisher Scientific, cat. 100-26), 500 nM SB-431542 (Selleckchem, cat. S1067), and gastrin (Tocris, cat. 3006).
# […]
# 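Note: spheroids exposed to compounds for 7 days before readout.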
# 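Throughout, for viability, T/C: percent of vehicle DMSO control viability with 100% = untreated-like growth.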
Compound,"viability, T/C (compound 0.0316 µM)","viability, T/C (compound 0.1 µM)","viability, T/C (compound 0.316 µM)","viability, T/C (compound 1 µM)","viability, T/C (compound 3.16 µM)","viability, T/C (compound 10 µM)",IC50,"viability, T/C (compound 0.000999 µM)","viability, T/C (compound 0.00316 µM)","viability, T/C (compound 0.00999 µM)","viability, T/C (compound 0.0999 µM)"
C#Cc1c(F)ccc2cc(O)cc(-c3ncc4c(N5CC6CCC(C5)N6)nc(OCC56CCCN5CC(F)C6)nc4c3F)c12 (configuration not stated),103% and 112% and 90.1%,102% and 93.9% and 80.2%,110% and 81.1% and 95.1%,86.2% and 90.6% and 93.1%,101% and 33.1% and 95.4%,82.8% and 42.6% and 77.7%,> 10 µM and 2.42 µM,,,,
C=CC(=O)N1CCN(c2nc(=O)n(-c3c(C)ccnc3C(C)C)c3nc(-c4c(O)cccc4F)c(F)cc23)C(C)C1 (configuration not stated),114% and 108% and 103%,92.4% and 90.8% and 92.9%,104% and 91.5% and 93.6%,91.5% and 93.8% and 96.1%,105% and 95.6% and 103%,97.3% and 80.3% and 106%,> 10 µM,,,,
C=CCn1c(=O)c2cnc(Nc3ccc(N4CCN(C)CC4)cc3)nc2n1-c1cccc(C(C)(C)O)n1,88.3% and 90.1% and 98.2%,65.9% and 82.6% and 109%,65.6% and 85.4% and 103%,66.5% and 75% and 72.4%,72.8% and 29.1% and 28%,17.2% and 15.7% and 17.4%,5.01 µM and 1.87 µM and 1.78 µM,,,,
CC(=O)O[C@H]1C(=O)[C@@]2(C)[C@H]([C@H](OC(=O)c3ccccc3)[C@]3(O)C[C@H](OC(=O)[C@H](O)[C@@H](NC(=O)c4ccccc4)c4ccccc4)C(C)=C1C3(C)C)[C@]1(OC(C)=O)CO[C@@H]1C[C@@H]2O,114% and 62.1% and 42.4%,98.5% and 13.8% and 13.7%,89% and 15.7% and 17%,4.35% and 20.7% and 17.9%,0.15% and 21.9% and 16.7%,,,,,,
CC(C)(O)C1CCC(Nc2ccc3ncc(-c4cccc(C(F)(F)F)c4)n3n2)CC1 (configuration not stated),95.4% and 108% and 93.2%,77.4% and 81.7% and 98.5%,107% and 80.8% and 81.9%,96.5% and 87.1% and 71.6%,101% and 33.2% and 13.8%,95% and 42.3% and 22.1%,> 10 µM and 2.38 µM and 1.59 µM,,,,
CC(C)n1c(=O)n(C)c2cnc3cc(F)c(-c4ccc(OCCCN5CCCCC5)nc4)cc3c21,104% and 100% and 77.6%,107% and 87.5% and 98.7%,94.4% and 95.6% and 105%,94.8% and 106% and 92.8%,102% and 97.1% and 111%,113% and 80.3% and 102%,> 10 µM,,,,
CC1COCCN1c1cc(-c2ccnn2C)c2ccnc(-c3ccn[nH]3)c2n1 (configuration not stated),76.8% and 96.3% and 95.7%,80.2% and 78.9% and 53%,61.4% and 49% and 55.4%,43.9% and 49.3% and 38.2%,29.3% and 33% and 26.9%,20.9% and 28.2% and 23.2%,0.696 µM and 0.555 µM and 0.247 µM,,,,
CC1COCCN1c1cc(C2(O)CC3CCC(C2)O3)c2cnn(-c3ccn[nH]3)c2n1 (configuration not stated),80.7% and 77.9% and 79.5%,70% and 87.8% and 83.6%,61.8% and 55.8% and 62.1%,33.2% and 34.6% and 34.8%,24.2% and 20.5% and 35.2%,16.9% and 16.5% and 24.2%,0.491 µM and 0.478 µM and 0.53 µM,,,,
CC1COCCN1c1cc(C2(S(C)(=N)=O)CC2)nc(-c2ccnc3[nH]ccc23)n1 (configuration not stated),96.3% and 86.8% and 105%,101% and 80.1% and 81.3%,100% and 97.5% and 101%,62.2% and 81.9% and 77.9%,86.1% and 70.7% and 78.6%,42.4% and 60.9% and 49.9%,8.36 µM and > 10 µM,,,,
CCCS(=O)(=O)Nc1ccc(F)c(C(=O)c2c[nH]c3ncc(-c4ccc(Cl)cc4)cc23)c1F,117% and 88.2% and 74.2%,76.3% and 55.9% and 63.7%,90.1% and 68.8% and 55.6%,75.6% and 74.8% and 57.6%,29.3% and 72.3% and 66.7%,17.7% and 16.4% and 14.4%,1.89 µM and 4.98 µM and 4.34 µM,,,,
CC[C@@]1(O)C(=O)OCc2c1cc1n(c2=O)Cc2cc3c(CN(C)C)c(O)ccc3nc2-1,89.3% and 95.4% and 117%,,57.4% and 106% and 60.5%,,,,> 0.316 µM,98.2% and 99.2% and 107%,92.4% and 87.1% and 103%,106% and 101% and 87.3%,84% and 109% and 93.1%
CCc1c2c(nc3ccc(O)cc13)-c1cc3c(c(=O)n1C2)COC(=O)[C@]3(O)CC,50.7% and 73% and 63.6%,,29.2% and 39% and 30.2%,,,,0.0384 µM and 0.178 µM and 0.0546 µM,87.9% and 100% and 111%,81.8% and 80.9% and 91%,67.7% and 93.2% and 67%,40.8% and 61.3% and 40.1%
